Laboratory results published in patent US10682332B2, “Method for treating melanoma” (Huanggang normal University, priority 2017, dated 2020).

How the values were obtained:
[1] = test system: human melanoma cancer cell A2058; test: Growth inhibition of human melanoma cancer cell A2058; format: cell-based; conditions: 3.125-50 μmol solutions, 48 hrs culturing, absorbance
Procedure: (§1) The study was conducted using human melanoma cancer cell line A2058 or A375 as follows: culturing the cell line in DMEM medium; adding 5-hydroxy-3,6,7,8,3′,4′-hexamethoxyflavone with varying concentrations (3.125, 6.25, 12.5, 25, 50 μmol in 100 μl of 2% DMSO solution per liter of the medium); collecting the control and treated cells after 48 hrs of culturing and determining the cell viability by measuring light absorbance of the cells; and calculating the IC50 rate in the human melanoma cancer cells.
(§2) The cells derived from human melanoma lines A2058 and A375 were cultured in DMEM medium containing 100 U/mL penicillin, 100 μg/ml streptomycin, and 10% fetal bovine serum at a temperature of 37° C. and with carbon dioxide at a concentration of 5%. The cultured cells were divided into 6 study groups and each would be treated with 5-hydroxy-3,6,7,8,3′,4′-hexamethoxyflavone of a different concentration. […] After culturing for 48 hrs, the cells were collected and the absorbance of each treatment group was measured for calculating the IC50 rate in human melanoma cancer cell A2058 by the treatment. […]

[2] = test system: human melanoma cancer cell A375; test: Growth inhibition of human melanoma cancer cell A375; format: cell-based; conditions: 3.125-50 μmol solutions, 48 hrs culturing, absorbance
Procedure: as §1, §2

[3] = test system: human melanoma cancer cell A375; test: Cell cycle arrest by PI staining and flow cytometry; format: cell-based; conditions: 24 hrs, control 1.4%
Procedure: To further elucidate the mechanism of growth inhibition of the human melanoma cancer cells by 5-hydroxy-3,6,7,8,3′,4′-hexamethoxyflavone, another study was carried out using only human melanoma cancer cell A375 and 3 study groups. In one liter of the culturing media, 100 μL of 25 and 50 μmol of 5-hydroxy-3,6,7,8,3′,4′-hexamethoxyflavone prepared solutions were added to two study groups. The control group was only treated with 2% DMSO solution.
The studied cells were incubated for 24 hrs before collected in a centrifuge tube. The cells were then washed with PBS at 4° C. and n mixed with 70% ethanol pre-cooled at −20° C. before kept at 4° C. overnight. Next, the cells were centrifuged at 1000 rpm to remove ethanol and the cell density was adjusted to (1-2)×10^6 cells/mL by add PBS. Following adding PI and DNase-free RNase to respectively reach final concentrations of 50 μg/mL and 50 µg/mL, the cells were stained for cell cycle and apoptosis studies by flow cytometry. All studies were repeated 3 times and the averages were calculated.

[4] = test system: human melanoma cancer cell A375-engrafted C57BL/6 mice; test: Tumor growth in human melanoma cancer cell A375-engrafted C57BL/6 mice; format: in vivo, mouse; conditions: fed 0.4 mL of 0.5 μmol solution once every 2 days, 28 days after inoculation; control 2450 mm^3
Procedure: The study was carried out as follows: inoculating C57BL/6 mice with of the human melanoma cancer cells; dividing the mice into 2 groups with 8 mice in each group and treating them once every two days with (i) 0.4 ml of 2% DMSO, (ii) 0.4 ml of 2% DMSO containing 0.5 μmol of 5-hydroxy-3,6,7,8,3′,4′-hexamethoxyflavone; measuring tumor sizes after animal sacrificing 28 days post tumor cell inoculation.
The experimental C57BL/6 mice were divided into 2 groups, with 8 in each group. Each mouse was fed with 0.4 mL of 0.5 μmol 5-hydroxy-3,6,7,8,3′,4′-hexamethoxyflavone solution as in the treatment group or with 0.4 mL 2% DMSO solution as in the control group at a frequency of once every 2 days. Each mouse was inoculated with human melanoma cancer cell A375 following a standard protocol. 28 days after of the inoculation, the mice were sacrificed. Finally, sizes of tumors in each group of mice were measured and their averages were calculated.

Structure (SMILES): COc1ccc(-c2oc3c(OC)c(OC)c(OC)c(O)c3c(=O)c2OC)cc1OC [2-(3,4-dimethoxy-phenyl)-5-hydroxy-3,6,7,8-tetramethoxy-chromen-4-one]
- growth of human melanoma cancer cell A2058 [1]: inhibited the growth
- growth of human melanoma cancer cell A375 [2]: inhibited the growth
- G1 phase cells of the total cells ([3]; 25 μmol drug solution): 9.4%
- G1 phase cells of the total cells ([3]; 50 μmol drug solution): 25%
- average tumor size [4]: 890 mm^3
